# Experimental data reported in patent US5705518A, “Method of activating photosensitive agents” (University of British Columbia, priority 1995, dated 1998).
# Where two headings read alike, the source gives them in different places.
# Assays:
# [1] = mouse, in vivo, iv; cited from earlier work
# [2] = test system: M-1 (murine rhabdomyosarcoma) tumor; assay: Pilot study of shorter post injection intervals: PDT of M-1 tumor-bearing mice, light 15 min after liposomal BPD-MA; type: in vivo, DBA/2 mice; details: light 15 min post injection
# Experimental: Liposomal BPD was dried and stored frozen at -20° C. in 1 ml aliquots. The appropriate number of aliquots were thawed immediately before use and diluted with 5% dextrose in water for injection into the animals.
# Male DBA/2 mice (7-11 weeks old; Charles River Laboratories, St. Constant, Quebec, Canada) were used in these studies, unless otherwise specified. Shaving and depilation removed the hair very effectively from appropriate body surfaces. The mice were shaved and depilated with a commercially available depilator (Nair®) at least one day before being used in the experiments. Following injection the mice were kept in the dark for various lengths of time, as described below. Before and after the experiments the mice were kept in an animal facility with 12 hours of light and 12 hours of dark daily.
# An argon pumped dye laser, whose power source was obtained from Spectra Physics (Series 2000, Mountain View, Calif.) and whose 5W argon ion pumped dye laser was obtained from Coherent (Model 599, Palo Alto, Calif.) was used to deliver a columnated beam of light having a wavelength of 690 (±3) nm. The argon laser was aimed at the skin to irradiate the tumor. The time of light exposure was varied to give different light doses, such as 50, 75 and 100 Joules/cm^2.
# DBA/2 mice (weight 22±1 g) were used in this study. […]
# M-1 tumor cells = assay: Dose ranging study: drug dose, light dose and post injection interval, M-1 tumor-bearing mice; type: in vivo, DBA/2 mice
# M-1 tumor [3] = assay: Anti-tumor efficacy BPD-MA dose-response study (FIG. 4); type: in vivo, mice; details: 2.0 mg/kg (only group of 0.5, 1.0, 1.5, 2.0 mg/kg); 150 J/cm^2; three hours post injection
# Experimental: FIG. 4 illustrates an anti-tumor efficacy dose-response study for BPD-MA, liposomal formulation. […] Light exposure took place three hours after injection.
# For comparison, FIGS. 4 and 5 are provided. FIG. 4 summarizes results of a test involving the same mouse-tumor model, in which four different BPD-MA doses were given (0.5, 1.0, 1.5, and 2.0 mg/kg). Light exposure was 150 J/cm^2, administered after a post injection interval of three hours of darkness. Under this regimen, which is similar to current clinical regimens, the only group that was over 50% tumor free at 14 days was that group of mice receiving 2.0 mg/kg.
# M-1 tumor [4] = assay: Light dose-response study at 690 nm (FIG. 5); type: in vivo, mice; details: 2 mg/kg BPD-MA, three hours post injection
# Experimental: FIG. 5 illustrates a light dose-response study at 690 nm and with a BPD-MA dose of 2 mg/kg. […] Light exposure took place three hours after the injection of 2 mg/kg BPD-MA.
# FIG. 5 summarizes results of a test involving the same mouse-tumor model, in which five different light exposures (50, 75, 100, 125 and 150 J/cm^2) were used three hours post injection with 2 mg/kg BPD-MA. Under this regimen, which is similar to current clinical regimens, 75% of the mice receiving 150 J/cm^2 and 50% of the mice receiving 125 J/cm^2 were tumor free at 14 days.
# [5] = mouse, in vivo, iv, cited from earlier work
# M-1 tumor [6] = assay: Comparison PDT with light three hours post injection (FIG. 3), M-1 tumor mouse; details: 2.0 mg/kg BPD-MA, 100 J/cm^2, 4 days (FIG. 3)
# [7] = test system: subcutaneous rat gliosarcomas; details: in vivo; cited from earlier work
# [8] = human, in vivo; cited from earlier work
# bladder cancer = details: human, in vivo, cited from earlier work
# [9] = 0.5 mg/kg, 50 J/cm^2, 30 min post injection, 2 mice, interim
# [10] = 0.5 mg/kg, 75 J/cm^2, 15 min post injection, 2 mice, interim
# [11] = 0.5 mg/kg, 100 J/cm^2, 15 min post injection, 5 mice, interim
# [12] = 1.0 mg/kg, 50 J/cm^2, 15 min post injection, 4 mice, interim
# [13] = 1.0 mg/kg, 50 J/cm^2, 30 min post injection, 5 mice, interim
# [14] = 1.0 mg/kg, 75 J/cm^2, 15 min post injection, 5 mice, interim
# [15] = 1.0 mg/kg, 100 J/cm^2, 15 min post injection, 4 mice, interim
molecule,measurement,setting,value
C=Cc1c(C)c2cc3nc(cc4[nH]c(cc5nc(cc1[nH]2)C1(C)C5=CC=C(C(=O)OC)C1C(=O)OC)c(C)c4CCC(=O)O)C(CCC(=O)OC)=C3C (stereo not drawn) [BPD-MB],Tumor-skin ratios,[1],favorable
benzoporphyrin derivative monoacid ring A [BPD-MA],survival of mouse,"[2]; 0.5 mg/kg BPD-MA, 75 J/cm^2, 24 hours (FIG. 2)",alive
same,survival of mouse,"[2]; 1 mg/kg BPD-MA, 100 J/cm^2, 48 hours (FIG. 1)",alive
same,mice that developed tumors,"M-1 tumor cells; 0.5 mg/kg BPD-MA, 50 J/cm^2, 30 minutes post injection",all mice developed tumors
same,tumor free at day 7,"M-1 tumor cells; 0.5 mg/kg BPD-MA, 100 J/cm^2, 15 minutes post injection, day 7, five mice",all were tumor free at day 7
same,mice that developed tumors by day 14,"M-1 tumor cells; 0.5 mg/kg BPD-MA, 100 J/cm^2, 15 minutes post injection, day 14",Three of five mice
same,"# Tumor-Free, Day 7","M-1 tumor cells; 0.5 mg/kg, 50 J/cm^2, 1 min post injection, 3 mice, interim",3 mice
same,"# Tumor-Free, Day 7","M-1 tumor cells; 0.5 mg/kg, 50 J/cm^2, 15 min post injection, 2 mice, interim",2 mice
same,"# Tumor-Free, Day 7",M-1 tumor cells; [9],0 mice
same,"# Tumor-Free, Day 14",M-1 tumor cells; [9],0 mice
same,"# Tumor-Free, Day 7 column (observations on Day 2 post exposure)","M-1 tumor cells; 0.5 mg/kg, 75 J/cm^2, 1 min post injection, 2 mice, observed Day 2, interim",2 mice
same,"# Tumor-Free, Day 7",M-1 tumor cells; [10],2 mice
same,"# Tumor-Free, Day 14",M-1 tumor cells; [10],2 mice
same,"# Tumor-Free, Day 7","M-1 tumor cells; 0.5 mg/kg, 100 J/cm^2, 1 min post injection, 3 mice, interim",3 mice
same,"# Tumor-Free, Day 7",M-1 tumor cells; [11],5 mice
same,"# Tumor-Free, Day 14",M-1 tumor cells; [11],2 mice
same,"# Tumor-Free, Day 7","M-1 tumor cells; 0.5 mg/kg, 100 J/cm^2, 30 min post injection, 2 mice, interim",2 mice
same,"# Tumor-Free, Day 7","M-1 tumor cells; 1.0 mg/kg, 50 J/cm^2, 1 min post injection, 4 mice, interim",4 mice
same,"# Tumor-Free, Day 7",M-1 tumor cells; [12],4 mice
same,"# Tumor-Free, Day 14",M-1 tumor cells; [12],4 mice
same,"# Tumor-Free, Day 7",M-1 tumor cells; [13],4 mice
same,"# Tumor-Free, Day 14",M-1 tumor cells; [13],4 mice
same,"# Tumor-Free, Day 7",M-1 tumor cells; [14],5 mice
same,"# Tumor-Free, Day 14",M-1 tumor cells; [14],4 mice
same,"# Tumor-Free, Day 7","M-1 tumor cells; 1.0 mg/kg, 75 J/cm^2, 30 min post injection, 5 mice, interim",4 mice
same,"# Tumor-Free, Day 7",M-1 tumor cells; [15],4 mice
same,"# Tumor-Free, Day 14",M-1 tumor cells; [15],4 mice
same,"tumor free, animals followed to day 14","M-1 tumor cells; all regimens of Table 1, day 14, interim",most are tumor free
same,tumor free at 14 days,M-1 tumor [3],over 50%
same,tumor free at 14 days,M-1 tumor [4]; 125 J/cm^2,50%
same,tumor free at 14 days,M-1 tumor [4]; 150 J/cm^2,75%
same,BPD-MA in the tumor that was active,[5]; 3 h,100%
same,BPD-MA in the tumor that was active,[5]; 24 h,39%
same,degradation in livers and kidneys compared with tumors,[5],Both livers and kidneys degraded BPD-MA more quickly than did the tumors
same,survival of mouse,M-1 tumor [6],alive
same,tumor eradication,M-1 tumor [6],the tumor was eradicated
same,tumor palpability,M-1 tumor [6],The tumor was not palpable
hematoporphyrin derivative,safety of direct injection compared with parenteral injection,[7],direct injection appeared to be safer than parenteral injection
porfimer sodium,duration of photosensitivity (patient warning),[8],six
same,relationship of photosensitivity to injected drug dose,[8],no apparent relationship of photosensitivity to injected drug dose
same,time of occurrence of skin phototoxicity,"bladder cancer; iv, 2 mg/kg",≤ 10 days
same,patients with irritative bladder symptoms,bladder cancer,Five
